According to US11712434B2, “Compound having anti-cancer effect, and preparation method therefor and use thereof” (3D MEDICINES (BEIJING) CO., LTD., priority 2016, dated 2023):

Tests used:
Test in all cases: Cell proliferation assay (Alamar Blue)
Type in all cases: cell-based
JHH5 = JHH5 liver cancer cell line, 6 days culture
Summary of the method: (§1)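 Duplicate wells per concentration received compound from a 100 or 30 μM top in 3.16-fold steps. After six days' incubation, viable cells reduced added AlamarBlue over 1-4 h, measured at 560/590 nm. Dose-response curves yielded IC50.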

SW620 = SW620 tumor cell line, 6 days culture
Summary of the method: as §1

SNU387 = SNU387 liver cancer cell line, 6 days culture
Summary of the method: as §1

HUH6 = HUH6 liver cancer cell line, 6 days culture
Summary of the method: as §1

HEPG2 = HEPG2 liver cancer cell line, 6 days culture
Summary of the method: as §1

LNCAP-clone-FGC = LNCAP-clone-FGC tumor cell line, 6 days culture
Summary of the method: as §1

SNU354 = SNU354 liver cancer cell line, 6 days culture
Summary of the method: as §1

SNU475 = SNU475 liver cancer cell line, 6 days culture
Summary of the method: as §1

HCCLM3 = HCCLM3 tumor cell line, 6 days culture
Summary of the method: as §1

NCI-H716 = NCI-H716 tumor cell line, 6 days culture
Summary of the method: as §1

Li-7 = Li-7 liver cancer cell line, 6 days culture
Summary of the method: as §1

DLD1 = DLD1 tumor cell line, 6 days culture
Summary of the method: as §1

HLE = HLE liver cancer cell line, 6 days culture
Summary of the method: as §1

MFM-223 = MFM-223 tumor cell line, 6 days culture
Summary of the method: as §1

SNU449 = SNU449 liver cancer cell line, 6 days culture
Summary of the method: as §1

K562 = K562 tumor cell line, 6 days culture
Summary of the method: as §1

NCI-H2170 = NCI-H2170 tumor cell line, 6 days culture
Summary of the method: as §1

HUH7 = HUH7 liver cancer cell line, 6 days culture
Summary of the method: as §1

DU145 = DU145 tumor cell line, 6 days culture
Summary of the method: as §1

HT55 = HT55 tumor cell line, 6 days culture
Summary of the method: as §1

MG63 = MG63 tumor cell line, 6 days culture
Summary of the method: as §1

NCI-H526 = NCI-H526 tumor cell line, 6 days culture
Summary of the method: as §1

CCRF-CEM = CCRF-CEM tumor cell line, 6 days culture
Summary of the method: as §1

MDA-MB-231 = MDA-MB-231 tumor cell line, 6 days culture
Summary of the method: as §1

TE-15 = TE-15 tumor cell line, 6 days culture
Summary of the method: as §1

MDA-MB-435S = MDA-MB-435S tumor cell line, 6 days culture
Summary of the method: as §1

Cc1ccc(F)c(NC(=O)Nc2ccc(-c3cccc4[nH]nc(NC(=O)CCCCCNC(=O)C[C@H](N)C(=O)N[C@@H](CCC(=O)N[C@@H](CCC(=O)N[C@@H](CCC(=O)N[C@@H](CCC(=O)O)C(=O)O)C(=O)O)C(=O)O)C(=O)O)c34)cc2)c1 [Compound 5]
IC50 (JHH5; 144 h): > 100 µM
IC50 (SW620; Homo sapiens, SW-620, 144 h): > 100 µM
IC50 (SNU387; Homo sapiens, SNU-387, 144 h): > 100 µM
IC50 (HUH6; Homo sapiens, HuH-6, 144 h): > 100 µM
IC50 (HEPG2; Homo sapiens, 144 h): 72.2 µM
IC50 (LNCAP-clone-FGC; Homo sapiens, 144 h): > 100 µM
IC50 (SNU354; Homo sapiens, SNU-354, 144 h): > 100 µM
IC50 (SNU475; Homo sapiens, SNU-475, 144 h): > 100 µM
IC50 (HCCLM3; Homo sapiens, 144 h): > 100 µM
IC50 (NCI-H716; Homo sapiens, 144 h): > 100 µM
IC50 (Li-7; 144 h): > 100 µM
IC50 (DLD1; Homo sapiens, DLD-1, 144 h): > 100 µM
IC50 (HLE; Homo sapiens, 144 h): > 100 µM
IC50 (MFM-223; Homo sapiens, 144 h): > 100 µM
IC50 (SNU449; Homo sapiens, SNU-449, 144 h): > 100 µM
IC50 (K562; Homo sapiens, 144 h): > 100 µM
IC50 (NCI-H2170; Homo sapiens, 144 h): > 100 µM
IC50 (HUH7; Homo sapiens, Huh-7, 144 h): > 100 µM
IC50 (DU145; Homo sapiens, DU-145, 144 h): > 100 µM
IC50 (HT55; Homo sapiens, 144 h): > 100 µM
IC50 (MG63; Homo sapiens, MG-63, 144 h): > 100 µM
IC50 (NCI-H526; Homo sapiens, 144 h): > 100 µM
IC50 (CCRF-CEM; Homo sapiens, 144 h): > 100 µM
IC50 (MDA-MB-231; Homo sapiens, 144 h): > 100 µM
IC50 (TE-15; Homo sapiens, 144 h): > 100 µM
IC50 (MDA-MB-435S; Homo sapiens, 144 h): > 100 µM

Cc1ccc(F)c(NC(=O)Nc2ccc(-c3cccc4[nH]nc(NC(=O)CCCCCNC(=O)C[C@H](N)C(=O)O)c34)cc2)c1 [Compound 11]
IC50 (JHH5): > 100 µM
IC50 (SW620): > 100 µM
IC50 (SNU387): > 100 µM
IC50 (HUH6): > 100 µM
IC50 (HEPG2): 30.1 µM
IC50 (LNCAP-clone-FGC): > 100 µM
IC50 (SNU354): > 100 µM
IC50 (SNU475): > 100 µM
IC50 (HCCLM3): > 100 µM
IC50 (NCI-H716): 67.4 µM
IC50 (Li-7): > 100 µM
IC50 (DLD1): > 100 µM
IC50 (HLE): > 100 µM
IC50 (MFM-223): > 100 µM
IC50 (SNU449): > 100 µM
IC50 (K562): > 100 µM
IC50 (NCI-H2170): > 100 µM
IC50 (HUH7): > 100 µM
IC50 (DU145): > 100 µM
IC50 (HT55): > 100 µM
IC50 (MG63): > 100 µM
IC50 (NCI-H526): > 100 µM
IC50 (CCRF-CEM): > 100 µM
IC50 (MDA-MB-231): > 100 µM
IC50 (TE-15): > 100 µM
IC50 (MDA-MB-435S): > 100 µM

Cc1ccc(F)c(NC(=O)Nc2ccc(-c3cccc4[nH]nc(NC(=O)CCCCCCCCCCCNC(=O)C[C@H](N)C(=O)O)c34)cc2)c1 [Compound 12]
IC50 (JHH5): > 100 µM
IC50 (SW620): 55.6 µM
IC50 (SNU387): > 100 µM
IC50 (HUH6): > 100 µM
IC50 (HEPG2): 9.27 µM
IC50 (LNCAP-clone-FGC): 70.5 µM
IC50 (SNU354): 97.3 µM
IC50 (SNU475): > 100 µM
IC50 (HCCLM3): > 100 µM
IC50 (NCI-H716): 35.5 µM
IC50 (Li-7): 90.4 µM
IC50 (DLD1): > 100 µM
IC50 (HLE): > 100 µM
IC50 (MFM-223): 53.4 µM
IC50 (SNU449): > 100 µM
IC50 (K562): > 100 µM
IC50 (NCI-H2170): 59.2 µM
IC50 (HUH7): 40.6 µM
IC50 (DU145): 83 µM
IC50 (HT55): > 100 µM
IC50 (MG63): > 100 µM
IC50 (NCI-H526): > 100 µM
IC50 (CCRF-CEM): > 100 µM
IC50 (MDA-MB-231): 79.5 µM
IC50 (TE-15): > 100 µM
IC50 (MDA-MB-435S): > 100 µM
